These molecules were tested against T1, Tyrosine-protein phosphatase non-receptor type 1 (Homo sapiens, UniProt P18031) (assay: Inhibition of GST-tagged human recombinant PTP1B using para-nitrophenyl phosphate as substrate by spectrophotometric analysis).
T1 sequence (P18031 whole entry): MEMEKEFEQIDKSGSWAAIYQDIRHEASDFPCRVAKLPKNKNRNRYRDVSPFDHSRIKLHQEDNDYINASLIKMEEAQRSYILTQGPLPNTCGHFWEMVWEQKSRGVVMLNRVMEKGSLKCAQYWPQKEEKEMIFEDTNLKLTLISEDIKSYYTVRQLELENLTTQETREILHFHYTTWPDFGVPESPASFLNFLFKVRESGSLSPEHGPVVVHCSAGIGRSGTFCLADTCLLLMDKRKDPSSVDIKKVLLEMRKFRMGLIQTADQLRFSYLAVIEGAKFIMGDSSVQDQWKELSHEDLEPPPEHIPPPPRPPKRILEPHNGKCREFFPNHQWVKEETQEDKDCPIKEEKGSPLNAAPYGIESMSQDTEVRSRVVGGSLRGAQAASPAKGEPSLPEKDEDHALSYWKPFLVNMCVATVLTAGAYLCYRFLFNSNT

| Compound | IC50 |
| --- | --- |
| CC(C)[C@@H]1CC(=O)[C@H]2[C@@]1(CO)CC[C@@]1(C)[C@H]3C(=CC[C@]21C)C1=C(C[C@@H]3O)C(C)(C)[C@@H](O)CC1 | 6.8 µM |
| CC(C)[C@@H]1C[C@@H](O)[C@H]2[C@@]1(CO)CC[C@@]1(C)[C@H]3C(=CC[C@]21C)C1=CC[C@H](O)C(C)(C)[C@H]1C[C@@H]3O | 6.8 µM |

Next, values leading:

| IC50 | Compound |
| --- | --- |
| 6.8 µM | CC(C)[C@@H]1C[C@@H](O)[C@H]2[C@@]1(CO)CC[C@@]1(C)[C@H]3C(=CC[C@]21C)C1=C(C[C@@H]3O)C(C)(C)[C@@H](O)CC1 |
| 6.8 µM | CC(C)[C@@H]1[C@H](O)[C@@H](O)[C@H]2[C@@]1(CO)CC[C@@]1(C)[C@H]3C(=CC[C@]21C)C1=C(C[C@@H]3O)C(C)(C)[C@@H](O)CC1 |
| 6.8 µM | CC(C)[C@@H]1C[C@@H](O)[C@H]2[C@@]1(CO)CC[C@@]1(C)[C@H]3C(=CC[C@]21C)C1=C(C[C@@H]3O)[C@](C)(CO)[C@@H](O)CC1 |

Source: ChEMBL document CHEMBL2062412, “Structure and bioassay of triterpenoids and steroids isolated from Sinocalamus affinis” (J Nat Prod, 2012)
